± gives the standard deviation of the averaged measurements.
Columns and labels:
Test in all cases: level (log10 ratio to DMSO vehicle control); higher = higher biomarker level / cell amount than vehicle control
Heptafluorobutyl iodide = compound: FC(F)(F)C(F)(F)C(F)(F)CI [Heptafluorobutyl iodide]; details: in DMSO
Method: (§1)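 BioMAP Diversity Plus panel of 12 human primary cell co-culture systems (3C, 4H, LPS, SAg, BT, BF4T, BE3C, CASM3C, HDF3CGF, KF3CT, MyoF, Mphg). Compounds were added 1 h before stimulation and left for 24 h (MyoF 48 h; BT 72 h for soluble read-outs or 6 d for IgG). Biomarkers were read by ELISA, cytotoxicity by SRB, PBMC viability and proliferation by Alamar Blue. Each well value was divided by the mean of 8 DMSO control wells on the same plate and log10 transformed; duplicate blinded samples were tested at 4 concentrations.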

[1] = compound: O=S(=O)(O)C(F)(F)C(F)(F)C(F)(F)C(F)(F)C(F)(F)C(F)(F)C(F)(F)C(F)(F)C(F)(F)C(F)(F)F [Sodium perfluorodecanesulfonate]; details: in DMSO
Method: as §1

[2] = compound: O=C(O)C=CC(F)(C(F)(F)F)C(F)(F)F [3-(Perfluoroisopropyl)-2-propenoic acid]; details: in DMSO
Method: as §1

Nonafluoropentanamide = compound: NC(=O)C(F)(F)C(F)(F)C(F)(F)C(F)(F)F [Nonafluoropentanamide]; details: in DMSO
Method: as §1

[3] = compound: C=C(C)C(=O)OCCC(F)(F)C(F)(F)C(F)(F)C(F)(F)C(F)(F)C(F)(F)F [6:2 Fluorotelomer methacrylate]; details: in DMSO
Method: as §1

[4] = compound: C=CC(=O)OCC(F)(F)C(F)(F)C(F)(F)COC(=O)C=C [1H,1H,5H,5H-Perfluoro-1,5-pentanediol diacrylate]; details: 6700 nM; in DMSO
Method: as §1

[5] = compound: O=C(O)C(F)(F)C(F)(F)C(F)(F)C(F)(F)C(F)(F)C(F)(F)C(F)(F)C(F)(F)C(F)(F)C(F)F [11-H-Perfluoroundecanoic acid]; details: in DMSO
Method: as §1

Hexafluoroamylene glycol = compound: OCC(F)(F)C(F)(F)C(F)(F)CO [Hexafluoroamylene glycol]; details: in DMSO
Method: as §1

[6] = compound: O=S(=O)(O)CCC(F)(F)C(F)(F)C(F)(F)C(F)(F)C(F)(F)C(F)(F)F [6:2 Fluorotelomer sulfonic acid]; details: in DMSO
Method: as §1

[7] = compound: NC(=O)C(F)(F)C(F)(F)C(F)(F)C(F)F; details: in DMSO
Method: as §1

[8] = compound: FC(F)(F)C(F)(F)C(F)(F)C(F)(F)C(F)(F)C(F)(F)C(F)(F)I [1-Iodopentadecafluoroheptane]; details: in DMSO
Method: as §1

[9] = compound: O=S(=O)(Cl)C(F)(F)C(F)(F)C(F)(F)C(F)(F)C(F)(F)C(F)(F)C(F)(F)C(F)(F)F [Perfluoro-1-octanesulfonyl chloride]; details: in DMSO
Method: as §1

[10] = compound: NS(=O)(=O)C(F)(F)C(F)(F)C(F)(F)C(F)(F)C(F)(F)C(F)(F)F [Perfluorohexanesulfonamide]; details: in DMSO
Method: as §1

[11] = compound: COC(=O)C(F)(F)C(F)(F)OC(F)(C(F)(F)F)C(F)(F)OC(F)=C(F)F [Methyl perfluoro(3-(1-ethenyloxypropan-2-yloxy)propanoate)]; details: in DMSO
Method: as §1

[12] = compound: FC(F)(F)C(F)(F)CNCC(F)(F)C(F)(F)F [Bis(1H,1H-perfluoropropyl)amine]; details: in DMSO
Method: as §1

Octafluoroadipamide = compound: NC(=O)C(F)(F)C(F)(F)C(F)(F)C(F)(F)C(N)=O [Octafluoroadipamide]; details: in DMSO
Method: as §1

[13] = compound: FC(F)(F)C(F)(F)C(F)(F)CC1CO1 [1H,1H-Heptafluorobutyl epoxide]; details: in DMSO
Method: as §1

[14] = compound: O=S(=O)(F)C(F)(F)C(F)(F)C(F)(F)C(F)(F)C(F)(F)C(F)(F)C(F)(F)C(F)(F)F [Perfluorooctanesulfonyl fluoride]; details: in DMSO
Method: as §1

[15] = compound: FC(F)(F)C(F)(F)C(F)(F)C(F)(F)C(F)(F)C(F)(F)CC1CO1 [3-(Perfluorohexyl)-1,2-epoxypropane]; details: in DMSO
Method: as §1

Test System: 3C:CD142/Tissue Factor
- level (log10) (Heptafluorobutyl iodide; 6700 nM): -0.0315 ± 0.019
- level (log10) (Heptafluorobutyl iodide; 20000 nM): 0.0095 ± 0.016
- level (log10) (Heptafluorobutyl iodide; 60000 nM): -0.0155 ± 0.019
- level (log10) ([1]; 1500 nM): -0.0005 ± 0.04
- level (log10) ([1]; 4400 nM): -0.0075 ± 0.015
- level (log10) ([1]; 13000 nM): 0.0205 ± 0.025
- level (log10) ([1]; 40000 nM): -0.0695 ± 0.0078
- level (log10) ([2]; 6700 nM): -0.018 ± 0.065
- level (log10) ([2]; 20000 nM): -0.036 ± 0.048
- level (log10) ([2]; 60000 nM): 0.003 ± 0.061
- level (log10) (Nonafluoropentanamide; 6700 nM): -0.049 ± 0.041
- level (log10) (Nonafluoropentanamide; 20000 nM): -0.0275 ± 0.04
- level (log10) (Nonafluoropentanamide; 60000 nM): -0.067 ± 0.044
- level (log10) ([3]; 6700 nM): 0.0295 ± 0.0021
- level (log10) ([3]; 20000 nM): 0.034 ± 0.013
- level (log10) ([3]; 60000 nM): 0.021 ± 0.054
- level (log10) [4]: -0.29 ± 0.1
- level (log10) ([5]; 6700 nM): -0.011 ± 0.011
- level (log10) ([5]; 20000 nM): -0.0245 ± 0.013
- level (log10) (Hexafluoroamylene glycol; 6700 nM): 0.014 ± 0.1
- level (log10) (Hexafluoroamylene glycol; 20000 nM): 0.013 ± 0.062
- level (log10) (Hexafluoroamylene glycol; 60000 nM): 0.009 ± 0.1
- level (log10) ([6]; 6700 nM): -0.0065 ± 0.029
- level (log10) ([6]; 20000 nM): 0.006 ± 0.021
- level (log10) ([6]; 60000 nM): 0.0155 ± 0.064
- level (log10) ([7]; 6700 nM): -0.0025 ± 0.066
- level (log10) ([7]; 20000 nM): 0.006 ± 0.033
- level (log10) ([7]; 60000 nM): 0.0115 ± 0.036
- level (log10) ([8]; 6700 nM): -0.0085 ± 0.015
- level (log10) ([8]; 20000 nM): -0.052 ± 0.076
- level (log10) ([9]; 6700 nM): -0.035 ± 0.027
- level (log10) ([9]; 20000 nM): 0.015 ± 0.013
- level (log10) ([9]; 60000 nM): 0.0705 ± 0.063
- level (log10) ([10]; 6700 nM): 0.0005 ± 0.0078
- level (log10) ([10]; 20000 nM): -0.0285 ± 0.032
- level (log10) ([10]; 60000 nM): -0.0365 ± 0.029
- level (log10) ([11]; 6700 nM): 0.0415 ± 0.064
- level (log10) ([11]; 20000 nM): 0.0255 ± 0.0064
- level (log10) ([12]; 6700 nM): 0.038 ± 0.05
- level (log10) ([12]; 20000 nM): -0.0105 ± 0.094
- level (log10) ([12]; 60000 nM): 0.0165 ± 0.11
- level (log10) (Octafluoroadipamide; 6700 nM): 0.007 ± 0.082
- level (log10) (Octafluoroadipamide; 20000 nM): 0.0255 ± 0.073
- level (log10) (Octafluoroadipamide; 60000 nM): 0.0795 ± 0.046
- level (log10) ([13]; 6700 nM): 0.034 ± 0.0071
- level (log10) ([13]; 20000 nM): 0 ± 0.033
- level (log10) ([13]; 60000 nM): 0.0075 ± 0.022
- level (log10) ([14]; 6700 nM): -0.0085 ± 0.005
- level (log10) ([14]; 20000 nM): -0.0175 ± 0.0021
- level (log10) ([14]; 60000 nM): -0.0105 ± 0.0021
- level (log10) ([15]; 6700 nM): -0.042 ± 0.027
- level (log10) ([15]; 20000 nM): -0.05 ± 0.028
- level (log10) ([15]; 60000 nM): -0.0195 ± 0.029

Test System: 3C:CXCL9/MIG
- level (log10) (Heptafluorobutyl iodide; 6700 nM): -0.01 ± 0.0028
- level (log10) (Heptafluorobutyl iodide; 20000 nM): -0.0095 ± 0.0021
- level (log10) (Heptafluorobutyl iodide; 60000 nM): 0.0025 ± 0.0035
- level (log10) ([1]; 1500 nM): -0.005 ± 0.0099
- level (log10) ([1]; 4400 nM): -0.018 ± 0.011
- level (log10) ([1]; 13000 nM): -0.0025 ± 0.0064
- level (log10) ([1]; 40000 nM): 0.001 ± 0.0057
- level (log10) ([2]; 6700 nM): 0.004 ± 0.0071
- level (log10) ([2]; 20000 nM): -0.0105 ± 0.0064
- level (log10) ([2]; 60000 nM): 0.0045 ± 0.016
- level (log10) (Nonafluoropentanamide; 6700 nM): -0.0005 ± 0.0021
- level (log10) (Nonafluoropentanamide; 20000 nM): -0.0005 ± 0.021
- level (log10) (Nonafluoropentanamide; 60000 nM): 0.0065 ± 0.012
- level (log10) ([3]; 6700 nM): -0.001 ± 0.0014
- level (log10) ([3]; 20000 nM): 0.0025 ± 0.012
- level (log10) ([3]; 60000 nM): 0.0105 ± 0.023
- level (log10) [4]: -0.017 ± 0.0085
- level (log10) ([5]; 6700 nM): -0.005 ± 0.0085
- level (log10) ([5]; 20000 nM): -0.002
- level (log10) (Hexafluoroamylene glycol; 6700 nM): -0.006 ± 0.0071
- level (log10) (Hexafluoroamylene glycol; 20000 nM): -0.01 ± 0.0057
- level (log10) (Hexafluoroamylene glycol; 60000 nM): 0.007
- level (log10) ([6]; 6700 nM): -0.0065 ± 0.0021
- level (log10) ([6]; 20000 nM): -0.009 ± 0.017
- level (log10) ([6]; 60000 nM): -0.006 ± 0.0042
- level (log10) ([7]; 6700 nM): -0.0095 ± 0.011
- level (log10) ([7]; 20000 nM): -0.012 ± 0.0014
- level (log10) ([7]; 60000 nM): -0.0045 ± 0.0021
- level (log10) ([8]; 6700 nM): 0.001 ± 0.0099
- level (log10) ([8]; 20000 nM): -0.002 ± 0.0042
- level (log10) ([9]; 6700 nM): -0.011 ± 0.0057
- level (log10) ([9]; 20000 nM): -0.003 ± 0.0028
- level (log10) ([9]; 60000 nM): 0.021 ± 0.018
- level (log10) ([10]; 6700 nM): -0.0165 ± 0.005
- level (log10) ([10]; 20000 nM): -0.0055 ± 0.0021
- level (log10) ([10]; 60000 nM): 0.009 ± 0.0071
- level (log10) ([11]; 6700 nM): -0.0025 ± 0.012
- level (log10) ([11]; 20000 nM): -0.0005 ± 0.00071
- level (log10) ([12]; 6700 nM): 0.0005 ± 0.013
- level (log10) ([12]; 20000 nM): 0.003 ± 0.0071
- level (log10) ([12]; 60000 nM): 0.016 ± 0.025
- level (log10) (Octafluoroadipamide; 6700 nM): -0.002 ± 0.0028
- level (log10) (Octafluoroadipamide; 20000 nM): 0 ± 0.0057
- level (log10) (Octafluoroadipamide; 60000 nM): 0.024 ± 0.011
- level (log10) ([13]; 6700 nM): -0.005 ± 0.0071
- level (log10) ([13]; 20000 nM): -0.0135 ± 0.0064
- level (log10) ([13]; 60000 nM): -0.0035 ± 0.022
- level (log10) ([14]; 6700 nM): -0.008 ± 0.0099
- level (log10) ([14]; 20000 nM): -0.0015 ± 0.00071
- level (log10) ([14]; 60000 nM): 0.0055 ± 0.012
- level (log10) ([15]; 6700 nM): 0.0065 ± 0.0064
- level (log10) ([15]; 20000 nM): -0.011 ± 0.0071
- level (log10) ([15]; 60000 nM): 0.013 ± 0.0099
